Test system: PBMCs infected with VSV-G pseudotyped HIV virus (VSV-G/pNLG1-P2A-ΔEnv)
Assay: cells
Type: cell-based
Details: Homo sapiens, PBMC, read-out: TACK EC50

Compound: Nc1cc(Cc2cc3c(cc2F)[C@@](C#CC2CC2)(C(F)(F)F)NC(=O)N3)ccn1 [Example 14, (S)-2-amino-4-((4-(cyclopropyl-ethynyl)-6-fluoro-2-oxo-4-(trifluoromethyl)-1,2,3,4-tetra-hydroquinazolin-7-yl)methyl)-pyridin-1-ium 2,2,2-trifluoro-acetate]
- EC50: 121 nM

Compound: NC(=O)c1ccc(Cc2ccc3c(c2)NC(=O)N[C@]3(C#CC2CC2)C(F)(F)F)cc1 [Example 8, (S)-4-((4-(cyclopropylethynyl)-2-oxo-4-(trifluoromethyl)-1,2,3,4-tetrahydroquinazolin-7-yl)meth-yl)benzamide]
- EC50: 262 nM

Compound: O=C1Nc2cc(Cc3ccc(CO)cn3)c(F)cc2[C@@](C#CC2CC2)(C(F)(F)F)N1 [Example 41, (S)-2-((4-(cyclopropylethynyl)-6-fluoro-2-oxo-4-(trifluoromethyl)-1,2,3,4-tetrahydroquinazolin-7-yl)methyl)-5-(hydroxymethyl)pyridin-1-ium 2,2,2-trifluoroacetate]
- EC50: 90.7 nM

Compound: O=C1Nc2cc(Cc3ccc[nH]c3=O)ccc2[C@@](C#CC2CC2)(C(F)(F)F)N1 [Example 3, (S)-4-(cyclopropylethynyl)-7-((2-oxo-1,2-dihydropyridin-3-yl)-methyl)-4-(trifluoromethyl)-3,4-dihydroquinazolin-2(1H)-one]
- EC50: 237 nM

Compound: Cc1nc(C)c(Cc2cc3c(cc2F)[C@@](C#CC2CC2)(C(F)(F)F)NC(=O)N3)c(=O)[nH]1 [Example 17, (S)-4-(cyclopropylethynyl)-7-((2,4-dimethyl-6-oxo-1,6-dihydropyrimidin-5-yl)meth-yl)-6-fluoro-4-(trifluorometh-yl)-3,4-dihydroquinazolin-2(1H)-one]
- EC50: 46 nM

Compound: O=C1Nc2cc(Cc3ncc[nH]c3=O)ccc2[C@@](C#CC2CC2)(C(F)(F)F)N1 [Example 61, (S)-4-(cyclopropylethynyl)-7-((3-hydroxypyrazin-2-yl)methyl)-4-(trifluoromethyl)-3,4-dihydroquinazolin-2(1H)-one]
- EC50: 65 nM

Compound: O=C1Nc2cc(Cc3ccccn3)c(F)cc2[C@@](C#CC2CC2)(C(F)(F)F)N1 [Example 53, (S)-4-(cyclopropylethynyl)-6-fluoro-7-(pyridin-2-ylmeth-yl)-4-(trifluoromethyl)-3,4-dihydroquinazolin-2(1H)-one]
- EC50: 137 nM

Compound: Nc1nccc(Cc2cc3c(cc2F)[C@@](C#CC2CC2)(C(F)(F)F)NC(=O)N3)n1 [Example 38, (S)-7-((2-aminopyrimidin-4-yl)methyl)-4-(cyclopropylethynyl)-6-fluoro-4-(trifluoromethyl)-3,4-dihydroquinazolin-2(1H)-one]
- EC50: 38.6 nM

Compound: Cc1nc(C)c(Cc2ccc3c(c2)NC(=O)N(CC(F)F)[C@]3(C#CC2CC2)C(F)(F)F)c(=O)[nH]1 [Example 24, (S)-4-(cyclopropylethynyl)-3-(2,2-difluoroethyl)-7-((2,4-dimethyl-6-oxo-1,6-dihydropyrimidin-5-l)meth-yl)-4-(trifluoromethyl)-3,4-dihydroquinazolin-2(1H)-one]
- EC50: 146 nM

Compound: Cc1cc[nH]c(=O)c1Cc1ccc2c(c1)NC(=O)N[C@]2(C#CC1CC1)C(F)(F)F [Example 2, (S)-4-(cyclopropylethynyl)-7-((4-methyl-2-oxo-1,2-dihydropyridin-3-yl)methyl)-4-(trifluoromethyl)-3,4-dihydroquinazolin-2(1H)-one]
- EC50: 132 nM

Compound: Nc1ncnc(Cc2ccc3c(c2)NC(=O)N[C@]3(C#CC2CC2)C(F)(F)F)n1 [Example 49, (S)-7-((4-amino-1,3,5-triazin-2-yl)methyl)-4-(cyclopropyl-ethynyl)-4-(trifluoromethyl)-3,4-dihydroquinazolin-2(1H)-one]
- EC50: 146 nM

Compound: CN1C(=O)Nc2cc(Cc3ccnc(N)n3)c(Cl)cc2[C@@]1(C#CC1CC1)C(F)(F)F (single isomer, unassigned) [Example 30]
- EC50: 64.7 nM

Compound: Nc1nccc(Cc2ccc3c(c2)NC(=O)N[C@]3(C#CC2CC2)C(F)(F)F)n1 [Example 25, (S)-7-((2-aminopyrimidin-4-yl)methyl)-4-(cyclopropylethynyl)-4-(trifluoromethyl)-3,4-dihydroquinazolin-2(1H)-one]
- EC50: 45.5 nM

Compound: Cc1cc2c(cc1Cc1ccnc(N)n1)NC(=O)N[C@]2(C#CC1CC1)C(F)(F)F [Example 33, (S)-7-((2-aminopyrimidin-4-yl)methyl)-4-(cyclopropyl-ethynyl)-6-methyl-4-(trifluoro-methyl)-3,4-dihydroquinazo-lin-2(1H)-one]
- EC50: 183 nM

Compound: CC(F)(F)[C@@]1(C#CC2CC2)NC(=O)Nc2cc(Cc3ccnc(N)n3)ccc21 [Example 26, (S)-7-((2-aminopyrimidin-4-yl)methyl)-4-(cyclopropyl-ethynyl)-4-(1,1-difluoroethyl)-3,4-dihydroquinazolin-2(1H)-one]
- EC50: 31.2 nM

Compound: Nc1cccc(Cc2ccc3c(c2)NC(=O)N[C@]3(C#CC2CC2)C(F)(F)F)n1 [Example 35, (S)-7-((6-aminopyridin-2-yl)methyl)-4-(cyclopropylethynyl)-4-(trifluoromethyl)-3,4-dihydroquinazolin-2(1H)-one]
- EC50: 106 nM

Compound: Cc1nc(CO)[nH]c(=O)c1Cc1ccc2c(c1)NC(=O)N[C@]2(C#CC1CC1)C(F)(F)F [Example 63, (S)-4-(cyclopropylethynyl)-7-((2-(hydroxymethyl)-4-methyl-6-oxo-1,6-dihydropyrimidin-5-yl)methyl)-4-(trifluoromethyl)-3,4-dihydroquinazolin-2(1H)-one]
- EC50: 176 nM

Compound: Nc1cc(Cc2ccc3c(c2)NC(=O)N[C@]3(C#CC2CC2)C(F)(F)F)c(F)cn1 [Example 37, (S)-7-((2-amino-5-fluoro-pyridin-4-yl)methyl)-4-(cyclopropylethynyl)-4-(trifluoromethyl)-3,4-dihydroquinazolin-2(1H)-one]
- EC50: 168 nM

Compound: Nc1ccc(F)c(Cc2ccc3c(c2)NC(=O)N[C@]3(C#CC2CC2)C(F)(F)F)n1 [Example 36, (S)-7-((6-amino-3-fluoro-pyridin-2-yl)methyl)-4-(cyclopropylethynyl)-4-(trifluoromethyl)-3,4-dihydroquinazolin-2(1H)-one]
- EC50: 155 nM

Compound: NS(=O)(=O)c1ccc(Cc2ccc3c(c2)NC(=O)N[C@]3(C#CC2CC2)C(F)(F)F)cc1 [Example 9, (S)-4-((4-(cyclopropylethynyl)-2-oxo-4-(trifluoromethyl)-1,2,3,4-tetrahydroquinazolin-7-yl)meth-yl)benzenesulfonamide]
- EC50: 193 nM

Compound: NS(=O)(=O)c1ccc(Cc2cc3c(cc2F)[C@@](C#CC2CC2)(C(F)(F)F)NC(=O)N3)cc1 [Example 11, (S)-4-((4-(cyclopropylethynyl)-6-fluoro-2-oxo-4-(trifluoromethyl)-1,2,3,4-tetrahydroquinazolin-7-yl)methyl)benzenesulfonamide]
- EC50: 257 nM

Compound: O=C1Nc2cc(Cc3cnccn3)c(F)cc2[C@@](C#CC2CC2)(C(F)(F)F)N1 [Example 51, (S)-4-(cyclopropylethynyl)-6-fluoro-7-(pyrazin-2-ylmeth-yl)-4-(trifluoromethyl)-3,4-dihydroquinazolin-2(1H)-one]
- EC50: 96.4 nM

Compound: N#Cc1c(Cc2ccc3c(c2)NC(=O)N[C@]3(C#CC2CC2)C(F)(F)F)ccnc1N [Example 50, (S)-2-amino-4-((4-(cyclo-propylethynyl)-2-oxo-4-(trifluoromethyl)-1,2,3,4-tetrahydroquinazolin-7-yl)-methyl)nicotinonitrile]
- EC50: 34.9 nM

Source: patent US12492183B2, “Tetrahydroquinazoline derivatives as selective cytotoxic agents” (Merck Sharp & Dohme LLC, priority 2020, dated 2025)
